Test results: the NIST ThermoML archive (doi:10.1021/je300590v)

Settings: Vibrating tube method

O=C=O [carbon dioxide]
Settings | mass density [kg/m3]
273.15 K, 1001 kPa, Gas | 21.2
273.15 K, 2001 kPa, Gas | 45.7
273.15 K, 3001 kPa, Gas | 77.3
273.15 K, 3300 kPa, Gas | 89.9
273.15 K, 3500 kPa, Liquid | 928.1
273.15 K, 4001 kPa, Liquid | 932.4
273.15 K, 5001 kPa, Liquid | 940.7
273.15 K, 6000 kPa, Liquid | 948.2
273.15 K, 7000 kPa, Liquid | 955.3
273.15 K, 8003 kPa, Liquid | 961.9
273.15 K, 9001 kPa, Liquid | 968.1
273.15 K, 10002 kPa, Liquid | 974.1
273.15 K, 11003 kPa, Liquid | 979.7
273.15 K, 12000 kPa, Liquid | 985.1
273.15 K, 13004 kPa, Liquid | 990.1
273.15 K, 14002 kPa, Liquid | 995
273.15 K, 15001 kPa, Liquid | 999.7
273.15 K, 16002 kPa, Liquid | 1004.3
273.15 K, 17000 kPa, Liquid | 1008.6
273.15 K, 18001 kPa, Liquid | 1012.8
273.15 K, 19001 kPa, Liquid | 1017
273.15 K, 20000 kPa, Liquid | 1020.8
283.15 K, 1000 kPa, Gas | 20.4
283.15 K, 2001 kPa, Gas | 43.1
283.15 K, 3001 kPa, Gas | 70.9
283.15 K, 4000 kPa, Gas | 108.4
283.15 K, 4400 kPa, Gas | 130.1
283.15 K, 5001 kPa, Liquid | 869.1
283.15 K, 6003 kPa, Liquid | 882.2
283.15 K, 7000 kPa, Liquid | 893.3
283.15 K, 8001 kPa, Liquid | 903
283.15 K, 9001 kPa, Liquid | 912.2
283.15 K, 10001 kPa, Liquid | 920.4
283.15 K, 11001 kPa, Liquid | 928.2
283.15 K, 12000 kPa, Liquid | 935.5
283.15 K, 13001 kPa, Liquid | 942.2
283.15 K, 14001 kPa, Liquid | 948.3
283.15 K, 15000 kPa, Liquid | 954.3
283.15 K, 16001 kPa, Liquid | 960.1
283.15 K, 17001 kPa, Liquid | 965.5
283.15 K, 18002 kPa, Liquid | 970.8
283.15 K, 19001 kPa, Liquid | 975.7
283.15 K, 20000 kPa, Liquid | 980.4
293.15 K, 1011 kPa, Gas | 19.8
293.15 K, 2001 kPa, Gas | 41
293.15 K, 3001 kPa, Gas | 66.2
293.15 K, 4000 kPa, Gas | 97.3
293.15 K, 5000 kPa, Gas | 140.4
293.15 K, 5600 kPa, Gas | 182.2
293.15 K, 5800 kPa, Liquid | 774.1
293.15 K, 6001 kPa, Liquid | 783.3
293.15 K, 7003 kPa, Liquid | 809.1
293.15 K, 8001 kPa, Liquid | 827.5
293.15 K, 9002 kPa, Liquid | 843.2
293.15 K, 10001 kPa, Liquid | 856.1
293.15 K, 11001 kPa, Liquid | 867.7
293.15 K, 12000 kPa, Liquid | 877.9
293.15 K, 13000 kPa, Liquid | 887.3
293.15 K, 14000 kPa, Liquid | 895.9
293.15 K, 15003 kPa, Liquid | 904
293.15 K, 16003 kPa, Liquid | 911.5
293.15 K, 17001 kPa, Liquid | 918.6
293.15 K, 18002 kPa, Liquid | 925
293.15 K, 19002 kPa, Liquid | 931.2
293.15 K, 20000 kPa, Liquid | 937.1
